Data published in article PMC6010128, “Structure–activity relationship investigation of tertiary amine derivatives of cinnamic acid as acetylcholinesterase and butyrylcholinesterase inhibitors: compared with that of phenylpropionic acid, sorbic acid and hexanoic acid” (Journal of Enzyme Inhibition and Medicinal Chemistry, 2018).
Read-outs that look alike come from different tables or passages of the source.

Legend:
AChE [1] = biological target: T1, AChE (Rattus norvegicus, UniProt P37136); assay: Kinetic study of AChE inhibition (Lineweaver–Burk); type: biochemical
Experimental: Kinetic characterization of AChE was performed by a reported method. Compound 6g was added into the assay solution and preincubated with the enzyme at 30 °C, followed by the addition of 100 μL acetylthiocholine iodide including five concentrations. The assay solution contained 100 μL compound 6g, 100 μL DTNB, 2.79 ml 0.1 mol/l Na2HPO4/NaH2PO4 buffer (pH 7.4). Kinetic profile of the hydrolysis of acetylthiocholine iodide catalyzed by AChE was determined by the UV–Vis spectrometry at 412 nm. The parallel control experiment was carried out without compound 6g in the mixture.
Compound 6g was selected for further kinetic study since it had the strongest inhibiting activity against AChE among new synthesized compounds.
Fig. 2 Lineaweaver–Burk plot for the inhibition of AChE by compound 6g
Table 2 Kinetic parameters of AChE inhibited by compound 6g
C Michaelis-Menten Km Vmax Ki Ki’
(µmol/L) equation (mmol/L) (ΔAmin-1) (µmol//L) (µmol/L)
(1 picture or pasted object on this page, not shown here)

[2] = pKa by pH-titration method; type: physicochemical
Experimental: pKa is determined by pH-titration method according to the report. The titration curve E vs. VT was recorded and pKa value was calculated.

BChE = BChE (Rattus norvegicus, UniProt Q9JKC1); assay: biochemical; parameters: species or system Sprague–Dawley rat
AChE [3] = biological target: T1, AChE; assay: biochemical
[4] = Log P by shake flask method; type: physicochemical; conditions: octanol / PBS pH = 7.4, shake flask
Experimental: Log P is defined as the logarithm of octanol–water partition coefficient. […] Ultraviolet spectrophotometry was applied to determine the concentration of compounds. Log p values were calculated based on the data in triplicate.

[5] = rat serum BChE, Mean ± SD, triplicate
[6] = rat brain AChE, Mean ± SD, triplicate

T1 sequence (P37136 32-614): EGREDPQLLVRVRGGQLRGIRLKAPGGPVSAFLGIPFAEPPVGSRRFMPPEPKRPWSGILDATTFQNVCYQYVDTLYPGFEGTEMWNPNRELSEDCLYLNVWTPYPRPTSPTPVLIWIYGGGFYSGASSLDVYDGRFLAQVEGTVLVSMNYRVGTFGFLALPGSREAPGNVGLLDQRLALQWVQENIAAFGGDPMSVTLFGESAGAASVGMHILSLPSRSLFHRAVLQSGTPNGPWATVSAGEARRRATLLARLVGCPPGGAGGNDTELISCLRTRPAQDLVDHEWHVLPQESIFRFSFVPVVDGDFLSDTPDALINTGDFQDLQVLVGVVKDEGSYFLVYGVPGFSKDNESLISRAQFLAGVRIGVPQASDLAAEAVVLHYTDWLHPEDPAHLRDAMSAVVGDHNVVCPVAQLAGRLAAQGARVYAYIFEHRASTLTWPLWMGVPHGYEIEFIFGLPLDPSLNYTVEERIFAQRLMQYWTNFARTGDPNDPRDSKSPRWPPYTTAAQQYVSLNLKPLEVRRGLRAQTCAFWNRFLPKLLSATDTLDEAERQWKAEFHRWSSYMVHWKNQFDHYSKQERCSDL
BChE, sequence (Q9JKC1 24-597): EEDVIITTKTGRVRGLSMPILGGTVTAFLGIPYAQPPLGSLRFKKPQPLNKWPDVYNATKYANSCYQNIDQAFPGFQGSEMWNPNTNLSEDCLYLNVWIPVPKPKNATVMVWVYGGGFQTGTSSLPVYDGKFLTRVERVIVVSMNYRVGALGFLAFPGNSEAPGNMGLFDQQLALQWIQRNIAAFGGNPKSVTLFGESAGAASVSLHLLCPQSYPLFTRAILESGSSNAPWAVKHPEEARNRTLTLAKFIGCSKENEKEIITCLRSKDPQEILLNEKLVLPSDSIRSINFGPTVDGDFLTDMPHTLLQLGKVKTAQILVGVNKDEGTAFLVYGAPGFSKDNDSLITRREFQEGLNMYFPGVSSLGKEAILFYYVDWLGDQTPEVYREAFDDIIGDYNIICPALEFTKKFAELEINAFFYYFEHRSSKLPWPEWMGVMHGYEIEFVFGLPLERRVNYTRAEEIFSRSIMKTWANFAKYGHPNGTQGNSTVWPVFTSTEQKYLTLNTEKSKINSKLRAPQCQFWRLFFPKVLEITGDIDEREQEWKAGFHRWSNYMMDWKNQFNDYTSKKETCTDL

Structure (SMILES) | pKa ([2]; read-out: pKa) | IC50 (BChE; [5]) [µM] | Selectivity for AChE (AChE [3]; IC50 (BChE)/IC50 (AChE)) | IC50 (AChE [3]; [6]) [µM] | logP [4] | other results
O=C(C=Cc1ccccc1)Nc1ccc(OCCN2CCCC2)cc1 [Compound 6g] | 6.74 | 104 ± 1.34 | 28.6 | 3.64 ± 0.28 | 1.33 | Vmax (AChE [1]; AChE with 0.72 µmol/L compound 6g): 0.023 ΔAmin-1; Vmax (AChE [1]; AChE with 1.43 µmol/L compound 6g): 0.021 ΔAmin-1; Vmax (AChE [1]; AChE with 2.86 µmol/L compound 6g): 0.019 ΔAmin-1; non-competitive constant (Ki′) (AChE [1]; AChE, acetylthiocholine iodide substrate): 2.14 µM; Ki (AChE [1]; AChE, acetylthiocholine iodide substrate, read-out: competitive inhibit constant (Ki)): 7.27 µM; type of inhibition against AChE (AChE [1]; Lineweaver–Burk analysis): mixed-type inhibition
CCCCCC(=O)Nc1ccccc1OCCN(C)C [Compound 22d] | – | – | – | – | – | pKa [2]: 7.32; IC50 (BChE): 26.6 ± 1.36 µM; IC50 (AChE [3]): 186 ± 8.22 µM; Selectivity for AChE (AChE [3]): 0.14; Log P [4]: 1.23
CCCCCC(=O)Nc1ccccc1OCCN(CC)CC [Compound 22e] | 7.08 | 37.2 ± 2.24 | <0.07 | > 500 | 1.67 | –
CCCCCC(=O)Nc1ccccc1OCCN1CCCCC1 [Compound 22f] | 6.99 | 9.04 ± 0.27 | 0.03 | 325 ± 7.65 | 1.11 | –
CCCCCC(=O)Nc1ccccc1OCCN1CCCC1 [Compound 22g] | 7.16 | 18.6 ± 0.32 | <0.04 | > 500 | 1.11 | –
CCCCCC(=O)Nc1cccc(OCCN(C)C)c1 [Compound 23d] | 6.52 | 7.89 ± 0.89 | 0.13 | 60.6 ± 2.18 | 0.37 | –
CCCCCC(=O)Nc1cccc(OCCN(CC)CC)c1 [Compound 23e] | 7.15 | 0.67 ± 0.04 | 0.01 | 125 ± 4.23 | 0.93 | –
CCCCCC(=O)Nc1cccc(OCCN2CCCCC2)c1 [Compound 23f] | 7.32 | 0.22 ± 0.02 | 0.002 | 76.7 ± 3.17 | 1.55 | –
CCCCCC(=O)Nc1cccc(OCCN2CCCC2)c1 [Compound 23g] | 7.69 | 0.34 ± 0.01 | 0.01 | 50.7 ± 2.66 | 1.37 | –
CCCCCC(=O)Nc1ccc(OCCN(C)C)cc1 [Compound 24d] | 7.16 | 33.8 ± 4.21 | 0.81 | 41.7 ± 2.89 | 0.72 | –
CCCCCC(=O)Nc1ccc(OCCN(CC)CC)cc1 [Compound 24e] | 7.48 | 9.9 ± 1.28 | <0.02 | > 500 | 1.1 | –
CCCCCC(=O)Nc1ccc(OCCN2CCCCC2)cc1 [Compound 24f] | 7.16 | 17 ± 2.03 | 0.54 | 31.7 ± 2.74 | 1.54 | –
CCCCCC(=O)Nc1ccc(OCCN2CCCC2)cc1 [Compound 24g] | 6.92 | 13.9 ± 1.66 | 0.82 | 16.9 ± 0.91 | 0.16 | –
